Results reported in paper PMC11870037 (Molecules, 2024).

Columns and labels:
recombinant hH3R = recombinant hH3R (Homo sapiens, UniProt Q9Y5N1); assay: H3 receptor intrinsic activity assay ([35S]GTPγS binding); type: biochemical
σ1 receptor = molecular target: T1, σ1 receptor (Cavia porcellus, UniProt Q60492); assay: σ1 receptor binding ([3H]-(+)-pentazocine); conditions: guinea pig brain membrane
T1 construct: from tissue; host or cells: guinea pig brain membranes
Method: (§1) Antagonist potency was determined according to literature, by measuring inhibition of RAMH-induced [35S]GTPγS binding in recombinant hH3R membranes as previously. The […]
(§2) Inverse agonist potency was conducted by measuring inhibition of basal [35S]GTPγS binding in recombinant hH3 Rmembranes. Test compound or vehicle was added to the wells, followed by [35S]GTPγS to a final concentration of 0.2 nM. Nonspecific binding was determined in the presence of 10 μM unlabeled GTPγS. The control agonist signal was determined in wells containing vehicle in place of the test compound, and the basal signal was determined in wells containing vehicle in place of both diluted compound and the RAMH […]
(§3) 3. Selectivity of Compound 11b for Additional Receptors […]
(§4) transporter, 3[H]-WIN35,428, rat striatum; (2) Dopamine D1 receptor, 3[H]-SCH23390, rat striatum; (3) Dopamine D2 receptor, [3H]spiperone, rat striatum; (4) Dopamine D3 receptor, [3H] 7-OH-DPAT, rat olfactory tubercle; (5) Serotonin 5-HT2A receptor, [3H]Ketanserin, rat brain cortex;
(§5) (6) Serotonin 5-HT2C receptor, [3H]mesulergine, rat brain cortex; (7) Adrenergic α2 receptor, [3H]- rauwolscine, rat cerebral cortex; (8) Histamine H2 receptor, [3H]tiotidine, Sf9 cells and […]

SERT [1] = molecular target: T2, SERT (Rattus norvegicus, UniProt P31652); assay: Monoamine uptake transporter assay, [3H]5-HT uptake by SERT; type: biochemical
T2 construct: [3H]-paroxetine, rat cerebral cortex; from tissue; host or cells: rat cerebral cortex (membranes / crude synaptosomes)

muscarinic M1 receptor = molecular target: T3, muscarinic M1 receptor (Homo sapiens, UniProt P11229); assay: Muscarinic M1 receptor binding (peripheral blood lymphocytes); conditions: lymphocyte suspension and sections
T3 construct: blood lymphocytes were used at a concentration of 1 × 10⁶ cells; endogenous in cells; host or cells: peripheral blood lymphocytes

hERG potassium channel = molecular target: T4, hERG potassium channel (Homo sapiens, UniProt Q12809); assay: hERG whole-cell patch clamp in HEK 293 cells; type: cell-based
T4 construct: expressed in transfected cells; host or cells: HEK 293

mice [2] = conditions: oral, immobility duration
mice [3] = assay: Tail suspension test (TST); type: in vivo, mouse; conditions: oral, immobility duration
NET [4] = molecular target: T5, NET (Rattus norvegicus, UniProt Q63380); assay: biochemical; conditions: Receptor Affinity Ki ± SEM NET, rat hippocampal membrane, [3H]nisoxetine; means ± SEM of three experiments
Histamine H2 receptor = Histamine H2 receptor (Homo sapiens, UniProt P25021); assay: Histamine H2 receptor binding ([3H]tiotidine, Sf9 membranes); conditions: Sf9 cells and membrane
σ2 receptor = molecular target: T6, σ2 receptor (Cavia porcellus, UniProt H0V073); assay: σ2 receptor binding ([3H]-DTG); conditions: guinea pig brain membrane
T6 construct: from tissue; host or cells: guinea pig brain membranes

[5] = Pharmacokinetic study in rats; type: in vivo; conditions: rat, plasma
Method: 7. Pharmacokinetics Study
The HPLC conditions were as follows: Shimadzu LC30AD spectrometer ; column, SHIMADZU C18 (2.1 mm×50 mm, 2 μm); mobile phase A: 0.1% FA-Acetonitrile; mobile phase B: 0.1% FA-Deionized water; ﬂow rate, 0.4 mL/min; column temperature: 25 °C; UV detection was performed at 210 nm. The Mass conditions were as follows: ESI (positive), Ion spray voltage: 5500V, Curtain gass: 30, Temperature: 550°C, Ion Source Gas1: 55, Collision Gas: 7. For routine compound 11b screening, rats (n = 6/group) were dosed via the lateral tail vein at the indicated dose for iv administration (2 mg/kg, NS) or via oral gavage (20 mg/kg, Deionized water). At 0, 0.08, 0.25, 0.5,1、2、4、7、10 and 24h after administration, serial blood samples were collected from the lateral tail vein into heparinized collection tubes (approximately 0.25 mL). The plasma was separated by centrifugation, and the sample was prepared for LC/MS analysis by protein precipitation with acetonitrile. The plasma samples were analyzed for drug and internal standard via the LCMS/MS protocol.

[6] = molecular target: T7, M4 muscarinic cholinergic receptor (Homo sapiens, UniProt P08173); assay: Muscarinic M4 receptor binding (lymphocyte suspension); conditions: lymphocyte suspension and sections
T7 construct: blood lymphocytes were used at a concentration of 1 × 10⁶ cells; endogenous in cells; host or cells: peripheral blood lymphocytes

Dopamine D2 receptor = Dopamine D2 receptor (Rattus norvegicus, UniProt P61169); assay: Dopamine D2 receptor binding ([3H]spiperone); conditions: rat striatum
adrenergic α1 receptor = assay: Adrenergic α1 receptor binding assay ([3H]prazosin); conditions: rat cerebral cortex, means ± SEM of three experiments, read-out: Receptor Affinity Ki ± SEM α1
Histamine H4 receptor = molecular target: T8, Histamine H4 receptor (Homo sapiens, UniProt Q9H3N8); assay: Histamine H4 receptor binding ([3H]Na-Methylhistamine, Sf9 membranes); conditions: Sf9 cells and membrane
T8 construct: expressed in transfected cells; host or cells: Sf9 membranes

Adrenergic α2 receptor = Adrenergic α2 receptor binding ([3H]-rauwolscine); conditions: rat cerebral cortex
M2 muscarinic receptor = molecular target: T9, M2 muscarinic receptor (Homo sapiens, UniProt P08172); assay: Muscarinic M2 receptor binding (lymphocyte suspension); conditions: lymphocyte suspension and sections
T9 construct: blood lymphocytes were used at a concentration of 1 × 10⁶ cells; endogenous in cells; host or cells: peripheral blood lymphocytes

SERT [7] = molecular target: T2, SERT; assay: biochemical; type: binding
NET [8] = molecular target: T5, NET; assay: Monoamine uptake transporter assay, [3H]NE uptake by NET; type: biochemical
mice [9] = assay: Locomotor activity test; type: in vivo, mouse; conditions: oral 5, 10, 20, 40, and 80 mg/kg, 15 min period
[10] = molecular target: T10, M5 muscarinic cholinergic receptor (Homo sapiens, UniProt P08912); assay: Muscarinic M5 receptor binding (lymphocyte suspension); conditions: lymphocyte suspension and sections
T10 construct: blood lymphocytes were used at a concentration of 1 × 10⁶ cells; endogenous in cells; host or cells: peripheral blood lymphocytes
Method: as §1, §2, §3, §4, §5

T5 sequence (Q63380 1-617): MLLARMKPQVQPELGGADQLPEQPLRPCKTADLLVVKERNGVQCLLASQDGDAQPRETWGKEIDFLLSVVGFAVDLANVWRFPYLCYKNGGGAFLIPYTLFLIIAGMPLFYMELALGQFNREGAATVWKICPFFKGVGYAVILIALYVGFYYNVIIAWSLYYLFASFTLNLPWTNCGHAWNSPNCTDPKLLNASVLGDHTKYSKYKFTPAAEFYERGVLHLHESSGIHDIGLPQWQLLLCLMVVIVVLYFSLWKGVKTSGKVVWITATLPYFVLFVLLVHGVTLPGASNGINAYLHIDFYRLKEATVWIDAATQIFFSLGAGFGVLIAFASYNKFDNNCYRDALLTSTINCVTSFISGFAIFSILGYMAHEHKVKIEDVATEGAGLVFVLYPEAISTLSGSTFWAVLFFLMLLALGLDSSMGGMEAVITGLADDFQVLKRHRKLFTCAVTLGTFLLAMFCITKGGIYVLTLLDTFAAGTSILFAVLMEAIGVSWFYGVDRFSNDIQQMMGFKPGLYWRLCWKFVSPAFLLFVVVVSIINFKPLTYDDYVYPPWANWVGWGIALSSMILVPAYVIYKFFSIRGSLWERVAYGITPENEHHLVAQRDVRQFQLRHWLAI
T2 sequence (P31652 whole entry): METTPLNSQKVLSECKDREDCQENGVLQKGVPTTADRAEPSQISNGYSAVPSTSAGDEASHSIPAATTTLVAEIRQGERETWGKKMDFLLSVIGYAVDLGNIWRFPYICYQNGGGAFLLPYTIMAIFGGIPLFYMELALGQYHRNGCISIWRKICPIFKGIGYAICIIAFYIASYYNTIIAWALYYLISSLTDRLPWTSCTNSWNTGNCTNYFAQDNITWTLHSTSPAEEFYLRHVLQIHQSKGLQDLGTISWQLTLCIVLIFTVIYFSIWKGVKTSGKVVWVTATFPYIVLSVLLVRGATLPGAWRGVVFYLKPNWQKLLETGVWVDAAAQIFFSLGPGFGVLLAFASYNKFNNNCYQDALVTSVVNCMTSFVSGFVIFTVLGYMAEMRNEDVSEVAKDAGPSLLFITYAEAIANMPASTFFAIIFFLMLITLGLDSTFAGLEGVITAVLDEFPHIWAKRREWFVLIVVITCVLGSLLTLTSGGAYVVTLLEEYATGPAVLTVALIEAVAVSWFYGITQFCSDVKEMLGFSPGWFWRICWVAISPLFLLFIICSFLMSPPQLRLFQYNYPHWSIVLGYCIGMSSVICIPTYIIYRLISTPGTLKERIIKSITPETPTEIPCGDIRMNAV
Sequence of recombinant hH3R (Q9Y5N1 whole entry): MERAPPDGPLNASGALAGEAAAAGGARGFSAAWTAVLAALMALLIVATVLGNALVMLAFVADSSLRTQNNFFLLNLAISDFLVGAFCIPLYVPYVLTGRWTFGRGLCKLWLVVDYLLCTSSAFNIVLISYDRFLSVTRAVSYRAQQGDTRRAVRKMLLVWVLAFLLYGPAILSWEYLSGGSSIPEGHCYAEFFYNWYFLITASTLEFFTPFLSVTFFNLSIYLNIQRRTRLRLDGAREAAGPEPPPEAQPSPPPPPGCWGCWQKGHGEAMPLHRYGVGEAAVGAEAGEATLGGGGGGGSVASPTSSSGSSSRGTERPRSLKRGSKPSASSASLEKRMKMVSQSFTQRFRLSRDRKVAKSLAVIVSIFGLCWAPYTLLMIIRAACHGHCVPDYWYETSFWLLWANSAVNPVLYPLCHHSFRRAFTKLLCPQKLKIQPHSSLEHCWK
T1 sequence (Q60492 whole entry): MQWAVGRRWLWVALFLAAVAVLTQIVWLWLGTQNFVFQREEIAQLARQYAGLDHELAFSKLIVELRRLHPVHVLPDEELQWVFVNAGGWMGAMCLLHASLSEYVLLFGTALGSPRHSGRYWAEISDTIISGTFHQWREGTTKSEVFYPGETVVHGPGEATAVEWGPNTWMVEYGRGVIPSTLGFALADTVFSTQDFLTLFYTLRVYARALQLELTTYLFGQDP
T4 sequence (Q12809 whole entry): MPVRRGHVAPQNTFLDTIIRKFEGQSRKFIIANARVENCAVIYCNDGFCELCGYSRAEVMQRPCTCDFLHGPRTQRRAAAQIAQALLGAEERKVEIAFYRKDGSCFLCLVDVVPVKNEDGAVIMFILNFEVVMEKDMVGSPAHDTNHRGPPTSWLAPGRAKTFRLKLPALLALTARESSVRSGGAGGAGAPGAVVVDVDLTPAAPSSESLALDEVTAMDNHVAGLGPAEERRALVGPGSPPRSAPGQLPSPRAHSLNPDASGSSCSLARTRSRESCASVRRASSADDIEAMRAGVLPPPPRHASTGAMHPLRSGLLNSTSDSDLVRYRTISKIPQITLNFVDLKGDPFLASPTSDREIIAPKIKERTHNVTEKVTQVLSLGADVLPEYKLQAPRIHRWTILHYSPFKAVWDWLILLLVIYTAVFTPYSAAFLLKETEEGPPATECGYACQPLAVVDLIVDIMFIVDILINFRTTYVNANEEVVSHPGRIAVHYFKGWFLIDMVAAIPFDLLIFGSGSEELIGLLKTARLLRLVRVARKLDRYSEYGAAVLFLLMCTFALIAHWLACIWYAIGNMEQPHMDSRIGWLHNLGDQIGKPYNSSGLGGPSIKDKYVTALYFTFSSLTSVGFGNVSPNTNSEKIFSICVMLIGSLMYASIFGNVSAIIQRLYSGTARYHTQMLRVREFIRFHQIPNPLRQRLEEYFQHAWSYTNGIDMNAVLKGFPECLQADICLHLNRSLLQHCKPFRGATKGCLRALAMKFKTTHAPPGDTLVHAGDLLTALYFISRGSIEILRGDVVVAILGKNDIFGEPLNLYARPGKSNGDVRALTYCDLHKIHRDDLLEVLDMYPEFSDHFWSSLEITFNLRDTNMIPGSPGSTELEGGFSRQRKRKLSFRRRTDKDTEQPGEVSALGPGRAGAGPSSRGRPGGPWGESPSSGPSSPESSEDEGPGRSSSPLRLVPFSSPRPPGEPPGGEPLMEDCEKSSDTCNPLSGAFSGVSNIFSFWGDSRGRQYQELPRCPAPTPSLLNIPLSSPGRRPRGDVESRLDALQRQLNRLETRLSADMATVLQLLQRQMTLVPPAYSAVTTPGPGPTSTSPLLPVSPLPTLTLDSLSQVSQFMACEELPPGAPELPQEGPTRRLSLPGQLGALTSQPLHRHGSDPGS
Sequence of Histamine H2 receptor (P25021 whole entry): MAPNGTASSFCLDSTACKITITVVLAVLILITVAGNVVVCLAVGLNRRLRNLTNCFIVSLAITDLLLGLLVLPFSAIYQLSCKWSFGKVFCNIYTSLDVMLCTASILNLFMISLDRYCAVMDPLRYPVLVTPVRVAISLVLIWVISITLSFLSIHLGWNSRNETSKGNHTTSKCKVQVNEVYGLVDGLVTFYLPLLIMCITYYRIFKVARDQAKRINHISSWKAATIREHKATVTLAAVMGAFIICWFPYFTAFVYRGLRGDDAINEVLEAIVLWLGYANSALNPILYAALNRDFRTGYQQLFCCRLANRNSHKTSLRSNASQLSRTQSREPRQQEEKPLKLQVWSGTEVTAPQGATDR
T9 sequence (P08172 whole entry): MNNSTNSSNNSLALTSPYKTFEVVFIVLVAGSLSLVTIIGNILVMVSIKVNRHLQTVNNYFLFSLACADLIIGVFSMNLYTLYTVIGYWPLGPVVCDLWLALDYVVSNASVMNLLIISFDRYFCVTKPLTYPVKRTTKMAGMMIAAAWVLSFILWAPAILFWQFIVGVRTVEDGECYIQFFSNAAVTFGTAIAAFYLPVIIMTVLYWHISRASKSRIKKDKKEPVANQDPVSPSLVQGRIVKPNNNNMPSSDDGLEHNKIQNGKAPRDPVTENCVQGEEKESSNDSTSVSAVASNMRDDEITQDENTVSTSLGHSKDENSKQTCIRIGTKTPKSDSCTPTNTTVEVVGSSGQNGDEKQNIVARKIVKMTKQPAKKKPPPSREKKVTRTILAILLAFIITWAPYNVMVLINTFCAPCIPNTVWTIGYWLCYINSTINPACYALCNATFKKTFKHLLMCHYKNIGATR
T6 sequence (H0V073 1-176): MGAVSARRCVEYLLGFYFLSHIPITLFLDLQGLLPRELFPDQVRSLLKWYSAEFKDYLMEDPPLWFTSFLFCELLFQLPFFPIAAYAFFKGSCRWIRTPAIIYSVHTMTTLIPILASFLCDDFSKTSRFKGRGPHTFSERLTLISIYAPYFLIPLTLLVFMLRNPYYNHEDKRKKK
Sequence of Dopamine D2 receptor (P61169 1-415 isoform P61169-2): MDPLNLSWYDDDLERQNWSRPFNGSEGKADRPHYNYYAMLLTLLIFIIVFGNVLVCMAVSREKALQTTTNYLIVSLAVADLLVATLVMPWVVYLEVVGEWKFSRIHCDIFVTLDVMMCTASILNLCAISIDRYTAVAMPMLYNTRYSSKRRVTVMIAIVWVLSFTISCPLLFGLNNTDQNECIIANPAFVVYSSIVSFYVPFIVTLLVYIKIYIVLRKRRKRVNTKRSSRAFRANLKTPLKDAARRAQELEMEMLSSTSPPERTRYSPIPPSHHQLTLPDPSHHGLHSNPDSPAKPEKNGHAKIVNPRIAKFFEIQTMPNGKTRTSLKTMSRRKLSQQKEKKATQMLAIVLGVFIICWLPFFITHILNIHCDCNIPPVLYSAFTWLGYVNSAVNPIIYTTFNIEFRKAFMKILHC
T3 sequence (P11229 whole entry): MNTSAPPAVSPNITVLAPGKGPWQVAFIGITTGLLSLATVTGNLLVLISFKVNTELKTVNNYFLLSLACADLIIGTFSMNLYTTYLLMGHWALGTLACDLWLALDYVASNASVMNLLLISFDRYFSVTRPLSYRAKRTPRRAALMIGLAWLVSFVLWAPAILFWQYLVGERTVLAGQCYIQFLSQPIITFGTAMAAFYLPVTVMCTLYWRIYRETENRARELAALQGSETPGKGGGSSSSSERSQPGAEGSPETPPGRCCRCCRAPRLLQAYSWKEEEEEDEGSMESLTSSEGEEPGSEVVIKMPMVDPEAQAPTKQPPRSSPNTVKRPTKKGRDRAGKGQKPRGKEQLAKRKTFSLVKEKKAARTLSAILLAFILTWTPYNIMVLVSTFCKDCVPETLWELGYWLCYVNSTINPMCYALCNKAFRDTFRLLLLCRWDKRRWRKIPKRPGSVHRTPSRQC

Which results are given for CN(C)CCC(Oc1cccc2c1OCO2)c1ccc(OCCCN2CCCCC2)cc1.O=C(O)C(=O)O (stereo not drawn) [Compound 11b, 3-(benzo[d][1,3]dioxol-4-yloxy)-N,N-dimethyl-3-(4-(3-(piperidin-1-yl)propoxy)phenyl)propan-1-amine oxalate]?
inhibition at 10 µM (recombinant hH3R; 10 μM, n = 3): > 90%; IC50 (recombinant hH3R; antagonist assay, RAMH-induced [35S]GTPγS binding): 0.00072 µM; Ki (σ1 receptor): > 1 µM; Activation (10 μM, %) SERT (SERT [1]; 10 μM, n = 3): 4.4 ± 0.3%; inhibition at 10 µM (SERT [1]; 10 μM, n = 3): > 90%; IC50 (SERT [1]; [3H]5-HT uptake, antagonist assay): 0.0201 µM; Ki (muscarinic M1 receptor): > 1 µM; IC50 (hERG potassium channel): 1 ± 0.112 µM; minimal effective dose (MED) in FST (mice [2]): 6 mg/kg; minimal effective dose (MED) in TST (mice [3]): 10 mg/kg; Ki (NET [4]): 0.0105 ± 0.0012 µM; Ki (Histamine H2 receptor): > 1 µM; Ki (σ2 receptor): > 1 µM; AUC(0-inf) ([5]; 2 mg/kg iv): 265 ng·h/mL; AUC(0-t) ([5]; 2 mg/kg iv): 261 ng·h/mL; Cmax ([5]; 2 mg/kg iv): 224 ng/mL; MRT last ([5]; 2 mg/kg iv): 1.2 h; Tmax ([5]; 2 mg/kg iv): 0.08 h; half-life ([5]; 2 mg/kg iv): 1.3 h; AUC(0-inf) ([5]; 20 mg/kg po): 944 ng·h/mL; AUC(0-t) ([5]; 20 mg/kg po): 942 ng·h/mL; Cmax ([5]; 20 mg/kg po): 134 ng/mL; MRT last ([5]; 20 mg/kg po): 5.4 h; Tmax ([5]; 20 mg/kg po): 2 h; half-life ([5]; 20 mg/kg po): 2.6 h; bioavailability ([5]; 20 mg/kg po vs 2 mg/kg iv, read-out: F (bioavailability)): 35.6%; Ki [6]: > 1 µM; Ki (Dopamine D2 receptor): > 1 µM; Ki (adrenergic α1 receptor): 1.17 ± 0.126 µM; Ki (Histamine H4 receptor): > 1 µM; Ki (Adrenergic α2 receptor): > 1 µM; Ki (M2 muscarinic receptor): > 1 µM; Ki (SERT [7]; rat cerebral cortex, [3H]-paroxetine, means ± SEM of three experiments, read-out: Receptor Affinity Ki ± SEM SERT): 0.0078 ± 0.0009 µM; potency ratio among SERT, NET, and H3 (SERT [7]; ratio of binding Ki values for SERT, NET, H3): < 10 fold; Activation (10 μM, %) NET (NET [8]; 10 μM, n = 3): 2.7 ± 0.2%; inhibition at 10 µM (NET [8]; 10 μM, n = 3): > 90%; IC50 (NET [8]; [3H]NE uptake, antagonist assay): 0.0496 µM; total travel distance (locomotor activity) (mice [9]): did not significantly alter the total travel distance; Ki [10]: > 1 µM
